Measurements: patent publication US20160281050A1, “METHODS FOR TREATING A CULTURE OF HAEMATOCOCCUS PLUVIALIS FOR CONTAMINATION USING SALT AND HYDROGEN PEROXIDE” (HELIAE DEVELOPMENT LLC, priority 2015, published 2016)
Where two headings read alike, the source gives them in different places.

What was measured:
[1] = tested on: chytrids; test: % chytrid infection in flasks, salt treatment (Example 12); format: cell-based
Protocol: This test was done side by side in flasks (0.1 L) and in reactors located in a greenhouse operating in conditions: reactor volume of 230 L; Daily PAR of 20 mol m^−2 d^−1; pH (not measured); and paddlewheel speed of 21 RPM. […] The flask cultures were mixed by shaking at 140 rpm and received 300-400 μmol/m^2 s of photosynthetically active radiation (PAR) in 12 hour light cycles and constant supply of 2.5% CO2. The motility of the culture was monitored by visual observation under a microscope. […] Nine 230 L reactors were also seeded with culture from bioreactor #2410 on the same day as the flasks and brought to 2 ppt concentration of salt. Once motility of the cells was reduced to <10% (day 3 of culture for flasks and day 2 for 230 L reactors) the level of salt was elevated to a point between 4-18 ppt and compared to the culture in two reactors remaining at 2 ppt salt. Flasks and 230 L reactors were monitored for percentage of cell lysis via visual observation under a microscope, culture dry weight (biomass accumulation in g/L), and percentage of chytrid infection via visual observation under a microscope. Carotenoid production, a proxy for determining astaxanthin, was quantified every other day of culture in the 230 L reactors using the UV method.

[2] = tested on: Nitrogen fixing bacteria including Rhizobium, Emticicia, and Sinorhizobium; conditions: after the hydrogen peroxide treatments in bioreactor #2320 (from 20-40%)
Description: A series of Haematococcus pluvialis (Strain 1) cultures were compared using bacterial community sequencing (SSU rRNA 16s) to analyze the bacterial community of the cultures during a lysis event, a chytrid infection, and during treatment with hydrogen peroxide to determine if the bacteria community shifts or produces a detectable pattern.

[3] = tested on: Haematococcus pluvialis (Strain 1) green swimmer cells
Description: Haematococcus pluvialis cultures containing green swimmer cells in open raceway pond bioreactors [identification numbers (#) 2210 and 2220] disposed in a greenhouse, using paddlewheel mixing, and operating in conditions: reactor volume of 16,000 L; Daily photosynthetically active radiation (PAR) of 57 mol m^−2 d^−1; pH of 7.5; and paddlewheel speed of 40%; were inoculated on the same day and cultured in growth conditions.
The culture of bioreactor #2330 was transferred to open raceway pond bioreactor #2420 disposed in a greenhouse, using paddlewheel mixing, and operating in conditions: reactor volume of 140,000 L; Daily PAR of 58 mol m^−2 d^−1; pH of 7.3; and paddlewheel speed of 70%); but the culture was not treated after the transfer. […] Bacteria including Pseudomonas, Flectobacillus, and Cytophaga were present in the bacterial community in both the bioreactors #2330 and #2420.

[4] = tested on: Haematococcus pluvialis (Strain 2); test: % lysis and culture dry weight in flasks (Example 10);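 note: flask cultures run in duplicate, with duplicate untreated flasks serving as controls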
Description: Culture samples of Haematococcus pluvialis (Strain 2) were collected on the second day of the culture from open raceway bioreactor #2430 operating in conditions: reactor volume of 170,000 L; Daily PAR not measured; pH of 7.3; and paddlewheel speed of 70. The culture samples were distributed into flasks for culturing, consisting of duplicate untreated controls and duplicate treatments. […] Samples were taken from the flask cultures daily to quantify % lysis and % chytrid infection and cell dry weight was quantified every other day for a duration of 11 days.

[5] = tested on: chytrids;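 note: flask cultures run as treated duplicates beside untreated duplicate controls, with dosing halted by day 5 once lysis topped 10% and recovery afterwards tracked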
Description: Culture samples of Haematococcus pluvialis (Strain 2) were collected on day 5 of the culture from open raceway bioreactor #2420 operating in conditions: reactor volume of 170,000 L; Daily PAR not measured; pH of 7.3; and paddlewheel speed of 70%). Culture samples were distributed into flasks for culturing, consisting of duplicate untreated controls and duplicate treatments. […] Samples were taken from the flask cultures every few days in order to quantify % lysis, % chytrid infection, and cell dry weight for a duration of about 11 days.

[6] = bioreactor #2220, 0.0075 mL/L every 24 hours
[7] = 0.0140 mL/L 1 time per day, day 0
[8] = 0.0140 mL/L 1 time per day, day 3
[9] = 0.0140 mL/L 1 time per day, day 4

[Cl-].[Na+] [NaCl, sodium chloride]
% Chytrid infection in Flasks ([1]; 2 ppt, 9 d): 82 ± 17%
% Chytrid infection in Flasks ([1]; 2 ppt, 11 d): 96 ± 4%
% Chytrid infection in Flasks ([1]; 4 ppt, 9 d): 22 ± 20%
% Chytrid infection in Flasks ([1]; 4 ppt, 11 d): 85 ± 16%
% Chytrid infection in Flasks ([1]; 5 ppt, 9 d): 18 ± 16%
% Chytrid infection in Flasks ([1]; 5 ppt, 11 d): 53 ± 9%
% Chytrid infection in Flasks ([1]; 6 ppt, 9 d): 8 ± 11%
% Chytrid infection in Flasks ([1]; 6 ppt, 11 d): 19 ± 27%
% Chytrid infection in Flasks ([1]; 7 ppt, 9 d): 3 ± 5%
% Chytrid infection in Flasks ([1]; 7 ppt, 11 d): 0 ± 0%
% Chytrid infection in Flasks ([1]; 8 ppt, 9 d): 1 ± 1%
% Chytrid infection in Flasks ([1]; 8 ppt, 11 d): 2 ± 2%
% Chytrid infection in Flasks ([1]; 9 ppt, 9 d): 1 ± 1%
% Chytrid infection in Flasks ([1]; 9 ppt, 11 d): 1 ± 1%
% Chytrid infection in Flasks ([1]; 10 ppt, 9 d): 0 ± 0%
% Chytrid infection in Flasks ([1]; 10 ppt, 11 d): 0 ± 0%
% Chytrid infection in Flasks ([1]; 11 ppt, 9 d): 0 ± 0%
% Chytrid infection in Flasks ([1]; 11 ppt, 11 d): 17 ± 24%
chytrid infection ([1]; treatments between 7-10 ppt in flasks): 5-10%

hydrogen peroxide [H2O2]
relative amount of nitrogen fixing bacteria in the dominant bacterial community [2]: less than 10%
duration of high motility compared with untreated culture #2210 [3, 6]: one day longer
motility retained [3, 6]: 95%
time of chytrid detection compared with untreated culture #2310 ([3]; bioreactor #2320, 0.0075 mL/L every 24 hours): three days later
onset of high amounts of cell lysis ([3]; bioreactor #2320, treated culture): not until five days after the treatment ended
decrease of motility ([3]; bioreactor #2330, 0.0075 mL/L, after the first treatment): about 30%
lysis ([3]; bioreactor #2330, 0.0075 mL/L, after the second treatment): 60%
Chytrid sporangia present, time after hydrogen peroxide treatment ended ([3]; bioreactors #2330/#2420, end of the culture period): 7 days
Chytrid sporangia in the culture ([3]; bioreactors #2330/#2430, 0.0075 mL/L once before and twice after transfer): not detected
time high amounts of cell lysis remained high ([3]; bioreactors #2330/#2430, treatment began after lysis had occurred): 4 days
% Lysis ([4]; 0.0105 mL/L 1 time per day for 3 d then every other day, day 0): 0.8 ± 2.0%
% Lysis ([4]; 0.0105 mL/L 1 time per day for 3 d then every other day, day 3): 0.0 ± 0.0%
% Lysis ([4]; 0.0105 mL/L 1 time per day for 3 d then every other day, day 4): 1.7 ± 0.0%
% Lysis ([4]; 0.0105 mL/L 1 time per day for 3 d then every other day, day 5): 1.7 ± 2.4%
% Lysis ([4]; 0.0105 mL/L 1 time per day for 3 d then every other day, day 6): 3.3 ± 4.7%
% Lysis ([4]; 0.0105 mL/L 1 time per day for 3 d then every other day, day 7): 0.0 ± 0.0%
% Lysis ([4]; 0.0105 mL/L 1 time per day for 3 d then every other day, day 8): 0.8 ± 1.2%
% Lysis ([4]; 0.0105 mL/L 1 time per day for 3 d then every other day, day 9): 0.8 ± 1.2%
% Lysis ([4]; 0.0105 mL/L 1 time per day for 3 d then every other day, day 10): 0.8 ± 1.2%
% Lysis ([4]; 0.0105 mL/L 1 time per day, day 0): 0.8 ± 2.0%
% Lysis ([4]; 0.0105 mL/L 1 time per day, day 3): 0.0 ± 0.0%
% Lysis ([4]; 0.0105 mL/L 1 time per day, day 4): 1.7 ± 0.0%
% Lysis ([4]; 0.0105 mL/L 1 time per day, day 5): 1.7 ± 0.0%
% Lysis ([4]; 0.0105 mL/L 1 time per day, day 6): 0.8 ± 2.0%
% Lysis ([4]; 0.0105 mL/L 1 time per day, day 7): 0.0 ± 0.0%
% Lysis ([4]; 0.0105 mL/L 1 time per day, day 8): 1.7 ± 2.4%
% Lysis ([4]; 0.0105 mL/L 1 time per day, day 9): 7.5 ± 8.3%
% Lysis ([4]; 0.0105 mL/L 1 time per day, day 10): 0.0 ± 0.0%
percent lysis ([4]; 0.0105 mL/L, for 11 days): under 10%
% Lysis ([4]; 0.0140 mL/L 1 time per day for 3 d then every other day, day 0): 0.8 ± 2.0%
% Lysis ([4]; 0.0140 mL/L 1 time per day for 3 d then every other day, day 3): 4.2 ± 1.2%
% Lysis ([4]; 0.0140 mL/L 1 time per day for 3 d then every other day, day 4): 10.0 ± 8.7%
% Lysis ([4]; 0.0140 mL/L 1 time per day for 3 d then every other day, day 5): 15.8 ± 5.9%
% Lysis ([4]; 0.0140 mL/L 1 time per day for 3 d then every other day, day 6): 6.7 ± 0.0%
% Lysis ([4]; 0.0140 mL/L 1 time per day for 3 d then every other day, day 7): 13.3 ± 4.7%
% Lysis ([4]; 0.0140 mL/L 1 time per day for 3 d then every other day, day 8): 13.3 ± 2.4%
% Lysis ([4]; 0.0140 mL/L 1 time per day for 3 d then every other day, day 9): 5.0 ± 2.4%
% Lysis ([4]; 0.0140 mL/L 1 time per day for 3 d then every other day, day 10): 15.8 ± 12.9%
% Lysis [4, 7]: 0.8 ± 2.0%
% Lysis [4, 8]: 4.2 ± 1.2%
% Lysis [4, 9]: 10.0 ± 8.7%
% Lysis ([4]; 0.0140 mL/L 1 time per day, day 5): 10.0 ± 2.4%
% Lysis ([4]; 0.0140 mL/L 1 time per day, day 6): 9.2 ± 3.5%
% Lysis ([4]; 0.0140 mL/L 1 time per day, day 7): 20.0 ± 9.4%
% Lysis ([4]; 0.0140 mL/L 1 time per day, day 8): 6.7 ± 7.0%
% Lysis ([4]; 0.0140 mL/L 1 time per day, day 9): 21.7 ± 7.1%
% Lysis ([4]; 0.0140 mL/L 1 time per day, day 10): 9.2 ± 3.5%
percent lysis reached ([4]; 0.0140 mL/L, by day 7): 20%
% Lysis ([4]; 0.0175 mL/L 1 time per day for 2 d then every other, day 0): 0.8 ± 2.0%
% Lysis ([4]; 0.0175 mL/L 1 time per day for 2 d then every other, day 3): 31.7 ± 11.8%
% Lysis ([4]; 0.0175 mL/L 1 time per day for 2 d then every other, day 4): 22.2 ± 8.5%
% Lysis ([4]; 0.0175 mL/L 1 time per day for 2 d then every other, day 5): 19.2 ± 17.6%
% Lysis ([4]; 0.0175 mL/L 1 time per day for 2 d then every other, day 6): 25 ± 0.0%
percent lysis reached ([4]; 0.0175 mL/L, by day 3 after only being dosed twice): 30%
% Chytrid infection ([5]; 0.0105 mL/L 3 times per day (discontinued day 5), day 6): 2.5 ± 1.2%
% Chytrid infection ([5]; 0.0105 mL/L 3 times per day (discontinued day 5), day 9): 7.5 ± 3.5%
% Chytrid infection ([5]; 0.0105 mL/L 3 times per day (discontinued day 5), day 11): 100.0 ± 0.0%
% Chytrid infection ([5]; 0.0105 mL/L 3 times per day, day 0): 0.0 ± 0.0%
% Chytrid infection ([5]; 0.0105 mL/L 3 times per day, day 3): 0.8 ± 1.2%
% Chytrid infection ([5]; 0.0105 mL/L 3 times per day, day 4): 2.5 ± 3.5%
% Chytrid infection ([5]; 0.0105 mL/L 3 times per day, day 5): 1.7 ± 0.0%
% Chytrid infection ([5]; 0.0140 mL/L 1 time per day (discontinued day 5), day 6): 2.5 ± 1.2%
% Chytrid infection ([5]; 0.0140 mL/L 1 time per day (discontinued day 5), day 9): 0.0 ± 0.0%
% Chytrid infection ([5]; 0.0140 mL/L 1 time per day (discontinued day 5), day 11): 35.8 ± 29.5%
% Chytrid infection [5, 7]: 0.0 ± 0.0%
% Chytrid infection [5, 8]: 0.0 ± 0.0%
% Chytrid infection [5, 9]: 0.0 ± 0.0%
% Chytrid infection ([5]; 0.0140 mL/L 2 times per day (discontinued day 5), day 6): 5.8 ± 3.5%
% Chytrid infection ([5]; 0.0140 mL/L 2 times per day (discontinued day 5), day 9): 43.3 ± 4.7%
% Chytrid infection ([5]; 0.0140 mL/L 2 times per day (discontinued day 5), day 11): 97.5 ± 3.5%
% Chytrid infection ([5]; 0.0140 mL/L 2 times per day, day 0): 0.0 ± 0.0%
% Chytrid infection ([5]; 0.0140 mL/L 2 times per day, day 3): 2.5 ± 1.2%
% Chytrid infection ([5]; 0.0140 mL/L 2 times per day, day 4): 2.5 ± 3.5%
% Chytrid infection ([5]; 0.0140 mL/L 2 times per day, day 5): 5.0 ± 4.7%
% Chytrid infection ([5]; 0.0140 mL/L 3 times per day (discontinued day 5), day 6): 0.0 ± 0.0%
% Chytrid infection ([5]; 0.0140 mL/L 3 times per day (discontinued day 5), day 9): 0.0 ± 0.0%
% Chytrid infection ([5]; 0.0140 mL/L 3 times per day (discontinued day 5), day 11): 11.7 ± 16.5%
% Chytrid infection ([5]; 0.0140 mL/L 3 times per day, day 0): 0.0 ± 0.0%
% Chytrid infection ([5]; 0.0140 mL/L 3 times per day, day 3): 3.3 ± 4.7%
% Chytrid infection ([5]; 0.0140 mL/L 3 times per day, day 4): 0.0 ± 0.0%
% Chytrid infection ([5]; 0.0140 mL/L 3 times per day, day 5): 0.0 ± 0.0%
% Chytrid infection ([5]; 0.0175 mL/L 1 time per day (discontinued day 5), day 6): 0.0 ± 0.0%
% Chytrid infection ([5]; 0.0175 mL/L 1 time per day (discontinued day 5), day 9): 0.0 ± 0.0%
% Chytrid infection ([5]; 0.0175 mL/L 1 time per day (discontinued day 5), day 11): 34.2 ± 27.1%
% Chytrid infection ([5]; 0.0175 mL/L 1 time per day, day 0): 0.0 ± 0.0%
% Chytrid infection ([5]; 0.0175 mL/L 1 time per day, day 3): 0.8 ± 1.2%
% Chytrid infection ([5]; 0.0175 mL/L 1 time per day, day 4): 1.7 ± 0.0%
% Chytrid infection ([5]; 0.0175 mL/L 1 time per day, day 5): 1.7 ± 0.0%
chytrid infection ([5]; all treated flasks, until 4-6 days after treatment ended): less than 10%
